Where a SMILES comes first, the peptide text is derived from it. [ ]: non-standard residue; d: D form. The star is where a group is joined. Bz = O=C(c1ccccc1)*; NPr2 = CCCN(CCC)*
Columns and labels:
human ETBR = human ETBR (Homo sapiens, UniProt P24530); assay: ETBR activation, Aequorin assay; type: cell-based; details: eight concentrations, 0.01 to 100,000 nM
Protocol: Melanin-concentrating hormone receptor (MCHR), endothelin-1 receptor (ETBR), and serotonin-receptor (5-HT2AR) assays were performed by means of Aequorin assays. Recombinant cells co-expressing human MCH1R, MCH2R, ETBR, or 5-HT2AR and mitochondrial apoaequorin (MCH1R, MCH2R and 5-HT2AR cells also co-express recombinant Gα16 protein) (EuroscreenFast, Gosselies, Belgium), grown 18 h prior to the test in media without antibiotics, were detached by gentle flushing with PBS-EDTA (5 mM EDTA), recovered by centrifugation, and resuspended in assay buffer (DMEM/HAM’s F12 with HEPES + 0.1% BSA protease free). Cells were incubated under agitation at room temperature for at least 4 h with Coelenterazine h (Promega, X300X, 0.5 µM final concentration). Dose response curves with the reference compounds were performed before testing the compounds. For agonist testing, 50 µL of cell suspension was injected on 50 µL of test compound or reference agonist diluted in assay buffer and plated in a 96-well plate. The resulting emission of light was recorded using the Hamamatsu Functional Drug Screening System 6000 (FDSS 6000). […] Agonist activity of test compound was expressed as a percentage of the activity of the reference agonist at its EC100 concentration.

MT1R = target: T1, MT1R (Homo sapiens, UniProt P48039); assay: MT1R activation, GTPγS scintillation proximity assay on CHO-K1 membranes; type: biochemical; details: eight concentrations, 0.01 to 100,000 nM
T1 construct: host or cells: CHO-K1 (membrane preparations)
Protocol: (§1) Melatonin (MT1R and MT2R) and opioid receptor (OP1R, OP2R, and OP3R, corresponding to human delta, kappa, and mu opioid receptors) activation assays were performed by means of GTPγS scintillation proximity assays. For agonist testing, membrane preparations from CHO-K1 cells expressing each receptor (EuroscreenFast, Gosselies, Belgium) were mixed with guanosine diphosphate (GDP) (v/v). In parallel, GTPγ[^35S] (PerkinElmer, NEG030X, 0.1 nM final assay concentration) was mixed with PVT-WGA beads (Perkin Elmer, RPNQ001, 0.5 mg/well final assay density) (v/v) just before starting the reaction. The following reagents were then successively added in the wells of an Optiplate (Perkin Elmer): A total of 50 µL of test or reference ligand diluted in assay buffer, 10 µL of assay buffer (20 mM HEPES pH 7.4; 100–200 mM NaCl, 10 µg/mL saponin, MgCl2 at optimized concentration for the specific receptor, 0%–0.1% BSA), 20 µL of the membranes: GDP mix, and 20 µL of the GTPγ[^35S]: Beads mix. The plates were covered with a top seal, mixed on an orbital shaker for 2 min, and then incubated for 1 h at room temperature. Then the plates were centrifuged for 10 min at 2000 rpm, incubated at room temperature for 1 h, and counted for 1 min/well with a PerkinElmer TopCount™ reader.

OP3R = target: T2, OP3R (Homo sapiens, UniProt P35372); assay: OP3R (mu opioid) activation, GTPγS scintillation proximity assay; type: biochemical; details: eight concentrations, 0.01 to 100,000 nM
T2 construct: host or cells: CHO-K1 (membrane preparations)
Protocol: as §1

[1] = tested on: B16 murine melanoma cells; assay: Total melanin synthesis in mouse melanoma cells; type: cell-based; details: 72 h incubation
Protocol: B16 murine melanoma cells, which are highly responsive towards stimulation with alpha-melanocyte stimulating hormone (alpha-MSH), were grown in Dulbecco’s modified eagle medium (DMEM) with 1 g/L glucose supplemented with 3 g/L glucose, 2 mM L-glutamine, 50 U/mL Penicillin, 50 µg/mL Streptomycin, and 10% fetal calf serum. They were kept at 37 °C in a 5% CO2 atmosphere. Cells were grown for 24 h and then medium was replaced with medium containing the test or reference (NDP-alpha-MSH) compounds. After 72 h, total (intracellular and extracellular) melanin content was determined by absorbance spectroscopy at 405 nm. The results were quantified against a melanin standard curve.
Figure 1 Total melanin synthesis in mouse melanoma cells stimulated with MC1R-agonist peptides. MC1R-agonist peptides were incubated at various concentrations together with the near confluent mouse melanoma cell line B16F10. NDP-alpha-MSH at 100 nM was used as the reference and set to 100% melanin (red line). Error bars represent standard error of the mean of three experiments.

MC1R = MC1R expression in ex vivo epidermis in the presence of UVA; type: cell-based, human; details: ex vivo epidermis in the presence of UVA (Figure S1)
OP2R = target: T3, OP2R (Homo sapiens, UniProt P41145); assay: OP2R (kappa opioid) activation, GTPγS scintillation proximity assay; type: biochemical; details: eight concentrations, 0.01 to 100,000 nM
T3 construct: host or cells: CHO-K1 (membrane preparations)
Protocol: as §1

MITF = MITF protein expression in human skin ex vivo (immunohistochemistry); type: cell-based; details: topical 30, 100 and 200 µM, six days; p < 0.05
Protocol: Following declaration of Helsinki principles (DoH-Oct2013, World Medical Association, Ferney-Voltaire, France), human skin samples were obtained from elective plastic surgery after informed consent was obtained. For the two experiments shown in Figure 2, Figure 3 and Figure 4, we had one person with an individual topology angle (ITA°) of 18, and one person with an ITA° of 39 [69]. The skin samples were cut in pieces of 8 × 3 mm and cultured up to day 6. Skin samples were cultured in an air–liquid interface in a perforated ring of stainless steel in contact with culture medium (modified Williams’ E medium). The culture medium was renewed every three days (i.e., day 0–3). Compounds were added daily in DMSO at 4 µL volume. At day 6, the skin samples were fixed in formalin, embedded in paraplast, and cut at the microtome for histochemical staining and consequent image analysis. Six skin biopsies were used for each single treatment.
Twelve skin sections from the ex vivo melanogenesis experiment above were immunoassayed with the selected antibodies (TYR, Thermo Scientific #MS-800-P0 (Thermo Scientific, Waltham, MA, USA); TYRP-1, Covance #SIG-38150 (Covance Inc., Princeton, NJ, USA), MITF, Abcam #ab80651 (Abcam plc, Cambridge, UK). The number of positive cells within the epidermis was counted and the value was normalized upon the length of the basal lamina, thus obtaining a score. […]

T2 sequence (P35372 whole entry): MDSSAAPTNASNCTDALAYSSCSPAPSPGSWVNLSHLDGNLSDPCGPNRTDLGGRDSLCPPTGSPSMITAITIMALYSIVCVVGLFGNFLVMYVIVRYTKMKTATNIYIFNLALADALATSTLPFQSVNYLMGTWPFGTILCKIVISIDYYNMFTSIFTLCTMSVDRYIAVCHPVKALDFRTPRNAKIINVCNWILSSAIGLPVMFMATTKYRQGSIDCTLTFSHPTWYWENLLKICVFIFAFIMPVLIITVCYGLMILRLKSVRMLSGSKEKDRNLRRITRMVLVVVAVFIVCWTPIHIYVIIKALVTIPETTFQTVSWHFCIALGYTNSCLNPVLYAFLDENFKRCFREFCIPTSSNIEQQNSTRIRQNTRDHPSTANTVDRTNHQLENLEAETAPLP
T1 sequence (P48039 whole entry): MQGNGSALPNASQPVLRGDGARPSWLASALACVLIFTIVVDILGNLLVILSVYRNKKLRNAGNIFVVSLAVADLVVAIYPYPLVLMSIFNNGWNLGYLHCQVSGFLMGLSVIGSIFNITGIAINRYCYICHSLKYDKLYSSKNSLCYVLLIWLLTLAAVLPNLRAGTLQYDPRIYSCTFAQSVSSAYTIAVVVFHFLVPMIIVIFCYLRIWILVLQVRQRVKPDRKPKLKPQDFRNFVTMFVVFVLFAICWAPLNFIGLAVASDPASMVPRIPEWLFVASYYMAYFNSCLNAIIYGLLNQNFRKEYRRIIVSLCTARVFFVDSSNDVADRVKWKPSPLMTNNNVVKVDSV
Chain of human ETBR (P24530 27-442): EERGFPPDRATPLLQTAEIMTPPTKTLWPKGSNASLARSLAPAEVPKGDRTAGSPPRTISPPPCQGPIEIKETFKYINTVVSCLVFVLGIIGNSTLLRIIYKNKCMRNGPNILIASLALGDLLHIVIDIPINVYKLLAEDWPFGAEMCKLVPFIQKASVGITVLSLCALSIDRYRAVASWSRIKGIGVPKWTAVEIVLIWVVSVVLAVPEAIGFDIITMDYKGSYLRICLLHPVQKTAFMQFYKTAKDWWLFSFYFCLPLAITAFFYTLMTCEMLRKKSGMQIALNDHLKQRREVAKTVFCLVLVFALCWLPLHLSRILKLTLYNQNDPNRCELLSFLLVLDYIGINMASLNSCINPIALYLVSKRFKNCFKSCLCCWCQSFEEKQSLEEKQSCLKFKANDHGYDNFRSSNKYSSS
T3 sequence (P41145 whole entry): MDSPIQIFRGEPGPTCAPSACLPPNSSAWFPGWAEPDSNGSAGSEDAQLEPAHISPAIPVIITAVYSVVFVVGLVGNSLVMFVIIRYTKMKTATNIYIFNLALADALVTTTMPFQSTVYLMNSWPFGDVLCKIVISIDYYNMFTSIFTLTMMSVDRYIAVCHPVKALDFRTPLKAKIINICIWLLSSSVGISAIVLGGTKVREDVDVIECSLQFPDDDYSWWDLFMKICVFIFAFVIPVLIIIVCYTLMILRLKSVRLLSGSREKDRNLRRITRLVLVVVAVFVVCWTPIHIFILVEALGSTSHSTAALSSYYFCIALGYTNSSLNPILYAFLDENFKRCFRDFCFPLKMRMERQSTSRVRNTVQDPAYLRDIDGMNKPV

SMILES: CCCN(CCC)C(=O)[C@@H](Cc1c[nH]c2ccccc12)NC(=O)[C@H](CCCNC(=N)N)NC(=O)[C@@H](Cc1ccccc1)NC(=O)[C@H](Cc1c[nH]cn1)NC(=O)CNC(=O)c1ccccc1 [Peptide 4] (Bz-GH[dF]R[dW]-NPr2)
- EC50 (human ETBR): > 100 µM
- EC50 (MT1R): > 100 µM
- EC50 (OP3R): > 100 µM
- Concentration at which maximal melanin synthesis activity comparable to 100 nM NDP-alpha-MSH is reached [1]: around 12.3 nM
- Influence on expression of MC1R (MC1R): no influence
- EC50 (OP2R): > 100 µM
- Maximal induction of MITF protein expression vs vehicle (MITF): 79%

Source: paper PMC6940745 (International Journal of Molecular Sciences, 2019)
